Assays:
[1] = biological target: human glucagon-like peptide 2 receptor (GLP2R) (Homo sapiens (Human), UniProt O95838); test: CRE-luciferase reporter bioassay, HEK293/Myc-hGLP2R/Cre-Luc cell line; type: cell-based
Description: (§4) Cells were incubated overnight at 37° C. in 5% CO2. […] Plates were incubated for 5.5 h at 37° C. in 5% CO2. For end-point measurement, 100 μL/well of One-Glo reagent (Promega, #E6051) was added and plates were kept at room temperature for 5-10 minutes. Luciferase activity was measured on Envision Multilabel Plate Reader (Perkin Elmer) in Luminescent mode. The relative light units (RLU) values were obtained and the results were analyzed using nonlinear regression with GraphPad Prism software (GraphPad).

HEK293/CRE-Luc cells = test: cAMP responsive luciferase reporter assay, HEK293/CRE-Luc cells (no hGLP1R expression); type: cell-based, human
Source text: (§1) To test the activity of GLP1R agonist payloads, GLP1R agonist linker-payloads (LPs), and anti-GLP1R antibody tethered drug conjugates (ATDCs) of the disclosure, a cell-based cAMP responsive luciferase reporter assay was developed. To generate the assay cell line, the firefly luciferase gene was placed under the control of a cAMP response element (CRE) located upstream of a minimal promoter and transfected into HEK293 cells and referred to herein as HEK293/CRE-Luc cells.
(§2) Three-fold serial dilutions of free payloads or LPs were prepared in 100% DMSO, transferred to fresh assay media, and added to the cells at a final constant DMSO concentration of 0.2%. The last well in the plate served as a blank control containing only the assay media and 0.2% DMSO (untreated well) and was plotted as a continuation of the 3-fold serial dilution. Four to six hours later, luciferase activity was determined after the addition of One-Glo™ reagent (Promega, Cat #E6130) to each well. Relative light units (RLUs) were measured on an Envision luminometer (PerkinElmer) and EC50 values were determined using a four-parameter logistic equation over a 12-point dose response curve (GraphPad Prism). The signal to noise (S/N) was determined by taking the ratio of the highest RLU on the dose response curve to the RLU in the untreated wells.

[2] = Plasma stability of payloads and linker-payloads, monkey plasma; type: in vitro ADME; details: assay time 3 days
Description: (§3) The plasma stability of payloads and linker payloads of the disclosure were measured. For the assay, pooled frozen plasma (human, mouse or monkey) was thawed in cold water or a 37° C. water bath prior to experiment. Plasma was centrifuged at 4000 rpm for 5 min if any clots were observed, they were subsequently removed. If required, the pH was adjusted to 7.4±0.1. For the preparation of compounds and positive controls, a 1 mM intermediate solution was prepared by diluting 10 μL of their stock solution with 90 μL DMSO; a 1 mM intermediate solution of the positive control (Propantheline) was prepared by diluting 10 μL of its stock solution with 90 μL ultrapure water. Subsequently, 100 μM dosing solution for each compound was prepared by diluting 20 μL of the intermediate solution (1 mM) with 180 μL 45% MeOH/H2O. 98 μL of plasma was spiked with 2 μL of dosing solution (100 μM) to achieve the final concentration of 2 μM in duplicate. Samples were then incubated at 37° C. in a water bath. […] At each time point, 400 μL of stop solution (200 ng/mL tolbutamide plus 200 ng/mL labetalol in 50% ACN/MeOH) was added to precipitate protein and mixed thoroughly. Sample plates were then centrifuged at 4,000 rpm for 10 min. An aliquot of supernatant (50 μL) was transferred from each well and mixed with 100 μL ultra-pure water. […]

[3] = test system: Salmonella typhimurium TA98 and TA100; test: Mini-Ames reverse mutation assay with and without S9 mix; type: cell-based
Description: The objective of this Mini-Ames study was to evaluate the test article LP11, for its ability to induce reverse mutations in the genome of strains of Salmonella typhimurium TA98 and TA100 in the presence and absence of metabolic activation (S9 mixture).
The Mini-Ames assay was conducted for the test article in the presence and absence of the S9 mixture, concurrently with the negative/solvent control (DMSO) using six wells and positive controls (2 μg/well TA98 alone, 0.2 μg/well TA100 alone or 0.4 μg/well TA98+TA100 in the presence of S9) using three wells. The tested dose levels for the test article, in the presence and absence of S9 mix, were 1000, 400, 160, 64, 25, 10, 4, and 1.5 μg per well, with each dose tested in triplicate. The study was conducted using fresh cultures of the bacterial strains and fresh test article formulations.

[4] = Liver microsome stability (intrinsic clearance); type: in vitro ADME; details: microsomes
Description: To assess the in vitro ADME properties of the LP, microsomal stability assay was performed to determine intrinsic clearance, and plasma protein binding assay was performed to understand the distribution potential.

[5] = biological target: human glucagon receptor (GCGR) (Homo sapiens (Human), UniProt P47871); test: CRE-luciferase reporter bioassay, HEK293/Myc-hGCGR/Cre-Luc cell line; type: cell-based
human glucagon receptor (GCGR), sequence (P47871 26-477): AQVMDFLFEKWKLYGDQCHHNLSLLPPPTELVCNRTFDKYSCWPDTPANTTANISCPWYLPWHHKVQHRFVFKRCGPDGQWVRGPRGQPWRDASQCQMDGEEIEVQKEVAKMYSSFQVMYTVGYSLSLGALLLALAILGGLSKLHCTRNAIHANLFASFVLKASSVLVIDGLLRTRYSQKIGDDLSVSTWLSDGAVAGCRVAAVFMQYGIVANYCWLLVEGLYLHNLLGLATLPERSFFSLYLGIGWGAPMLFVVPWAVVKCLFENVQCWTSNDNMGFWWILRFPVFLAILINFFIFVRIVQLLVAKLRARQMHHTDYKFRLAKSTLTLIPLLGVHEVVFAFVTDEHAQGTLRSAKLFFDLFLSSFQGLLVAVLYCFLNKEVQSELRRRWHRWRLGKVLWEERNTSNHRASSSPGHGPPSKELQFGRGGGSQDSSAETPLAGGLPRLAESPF
Description: as §4

human GLP1R = human GLP1R (Homo sapiens (Human), UniProt P43220); test: cAMP responsive luciferase reporter assay, HEK293/CRE-Luc/hGLP1R cells; type: cell-based
human GLP1R, sequence (P43220 24-463): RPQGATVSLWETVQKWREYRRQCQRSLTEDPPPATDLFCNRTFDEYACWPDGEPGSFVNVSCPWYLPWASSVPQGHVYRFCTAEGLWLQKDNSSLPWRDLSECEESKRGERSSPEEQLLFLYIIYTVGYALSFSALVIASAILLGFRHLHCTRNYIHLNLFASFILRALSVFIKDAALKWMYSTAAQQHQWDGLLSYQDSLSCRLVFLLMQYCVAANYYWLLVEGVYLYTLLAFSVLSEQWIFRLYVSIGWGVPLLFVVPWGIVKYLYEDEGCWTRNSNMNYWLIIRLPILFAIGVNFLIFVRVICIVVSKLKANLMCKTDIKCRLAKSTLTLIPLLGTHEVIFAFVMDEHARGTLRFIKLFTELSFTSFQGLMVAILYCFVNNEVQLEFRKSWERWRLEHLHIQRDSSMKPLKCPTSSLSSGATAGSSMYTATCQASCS
Source text: as §1, §2
GLP1R agonist linker payloads were conjugated to anti-hGLP1R antibodies via N-terminal heavy or light chain Q tags. Several resulting anti-GLP1R antibody tethered drug conjugates (ATDCs) were tested for activity in the HEK293/CRE-Luc/hGLP1R reporter assay as described above for the free GLP1R payload and linker-payload agonists.

[6] = human, 4 h, 2 µM
Description: An assay was performed to determine the plasma protein binding of compounds of the disclosure. For the assay, on the day of experiment, the plasma was thawed in cold water and centrifuged at 3220 rpm for 5 minutes to remove any clots. The pH value of the resulting plasma was checked
For the dialysis, the test compound and control compound were dissolved in DMSO to achieve 10 mM stock solutions. DMSO working solutions were prepared at 400 μM. To prepare the loading matrix, compound working solutions (5 μL) were added in a 1:200 ratio to blank matrix (995 μL) and mixed thoroughly. To prepare the time zero (TO) samples to be used for recovery determination, 50 μL aliquots of loading matrix were transferred in triplicate to the sample collection plate. The samples were immediately matched with opposite blank buffer to obtain a final volume of 100 μL of 1:1 matrix/dialysis buffer (v/v) in each well. 500 μL of stop solution were added to these TO samples. This was then stored at 2-8° C. pending further processes along with other post-dialysis samples. To load the dialysis device, an aliquot of 150 μL of the loading matrix was transferred to the donor side of each dialysis well in triplicate, and 150 μL of the dialysis buffer was loaded to the receiver side of the well. […]
The percent unbound, percent bound, and percent recovery values were calculated using the following equations: […]

[7] = biological target: human gastric inhibitory polypeptide receptor (GIPR) (Homo sapiens (Human), UniProt P48546); test: CRE-luciferase reporter bioassay, HEK293/Myc-hGIPR/Cre-Luc cell line; type: cell-based
human gastric inhibitory polypeptide receptor (GIPR), sequence (P48546 22-466): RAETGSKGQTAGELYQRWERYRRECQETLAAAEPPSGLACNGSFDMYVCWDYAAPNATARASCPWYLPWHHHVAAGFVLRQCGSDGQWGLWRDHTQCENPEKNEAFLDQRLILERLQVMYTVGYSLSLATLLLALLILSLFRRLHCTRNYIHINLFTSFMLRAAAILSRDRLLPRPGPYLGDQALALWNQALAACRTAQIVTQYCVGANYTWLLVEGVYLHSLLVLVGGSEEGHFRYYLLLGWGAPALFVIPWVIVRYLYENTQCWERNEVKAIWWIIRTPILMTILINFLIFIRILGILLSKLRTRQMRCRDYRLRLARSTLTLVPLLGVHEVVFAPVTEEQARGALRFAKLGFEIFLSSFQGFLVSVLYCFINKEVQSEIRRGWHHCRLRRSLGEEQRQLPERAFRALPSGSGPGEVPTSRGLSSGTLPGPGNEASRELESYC
Description: as §4

[8] = Plasma stability of payloads and linker-payloads, mouse plasma; type: in vitro ADME; details: assay time 3 days
Description: as §3

[9] = relative to P8 of the same experiment

human glucagon-like peptide 2 receptor (GLP2R), sequence (O95838 whole entry): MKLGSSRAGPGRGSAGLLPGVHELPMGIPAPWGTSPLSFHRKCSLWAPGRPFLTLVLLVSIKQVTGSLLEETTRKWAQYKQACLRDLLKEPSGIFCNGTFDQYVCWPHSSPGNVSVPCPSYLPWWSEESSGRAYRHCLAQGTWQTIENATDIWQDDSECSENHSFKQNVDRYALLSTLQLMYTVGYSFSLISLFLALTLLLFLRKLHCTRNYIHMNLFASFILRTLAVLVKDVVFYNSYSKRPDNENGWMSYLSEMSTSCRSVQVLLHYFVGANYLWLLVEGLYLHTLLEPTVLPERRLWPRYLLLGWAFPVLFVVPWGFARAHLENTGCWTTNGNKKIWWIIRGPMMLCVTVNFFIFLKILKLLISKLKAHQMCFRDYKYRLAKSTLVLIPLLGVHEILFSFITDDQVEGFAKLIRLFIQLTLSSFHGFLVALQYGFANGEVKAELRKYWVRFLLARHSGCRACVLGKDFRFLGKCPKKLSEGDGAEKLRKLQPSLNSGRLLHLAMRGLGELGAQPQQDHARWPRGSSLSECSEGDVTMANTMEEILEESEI

| SMILES | CRE-dependent reporter activity ([1]; HEK293/Myc-hGLP2R/Cre-Luc) | EC50 (HEK293/CRE-Luc cells) [nM] | HEK293/CRE-LUC S/N (HEK293/CRE-Luc cells) | plasma stability T½ [2] [h] | cytotoxicity in tester strains ([3]; 1.5-1000 μg per well, with or without S9 mix) | mutagenicity ([3]; Mini-Ames conclusion) | Ames (TA98 and TA100) in the presence and absence of S9 ([3]; TA98 and TA100, with and without S9) | increase in the mean number of revertant colonies relative to negative/solvent control ([3]; TA98 or TA100, any dose level, presence or absence of S9 mix) [fold] | CLint(liver) [4] [mL/min/kg] | T1/2 [4] [h] | GLP2R, GIPR, or GCGR EC50 ([1]; GLP2R) | GLP2R, GIPR, or GCGR EC50 [5] | HEK293/CRE-LUC/hGLP1R S/N (human GLP1R; highest RLU / RLU of untreated wells) | HEK293/CRE-LUC/hGLP1R Relative Potency (% P8 EC50) (human GLP1R; [9]) [%] | HEK293/CRE-LUC/hGLP1R Relative Signal:Noise (% P8) (human GLP1R; [9]) [%] | % Recovery [6] [%] | GLP2R, GIPR, or GCGR EC50 [7] | plasma stability T½ [8] [h] |
| --- | --- | --- | --- | --- | --- | --- | --- | --- | --- | --- | --- | --- | --- | --- | --- | --- | --- | --- |
| CC[C@H](C)[C@H](NC(=O)[C@H](Cc1ccccc1)NC(=O)[C@H](CC(=O)O)NC(=O)[C@H](CCCNC(=N)N)NC(=O)[C@H](C)NC(=O)[C@H](C)NC(=O)[C@H](CC(C)C)NC(=O)[C@H](CC(N)=O)NC(=O)[C@H](CC(=O)O)NC(=O)[C@H](CC(C)C)NC(=O)[C@@H](NC(=O)[C@@H](NC(=O)[C@H](CC(N)=O)NC(=O)[C@H](CCSC)NC(=O)[C@H](CCC(=O)O)NC(=O)[C@H](CC(=O)O)NC(=O)[C@H](CO)NC(=O)[C@H](Cc1ccccc1)NC(=O)[C@H](CO)NC(=O)CNC(=O)[C@H](CC(=O)O)NC(=O)[C@H](C)NC(=O)[C@@H](N)Cc1c[nH]cn1)[C@@H](C)O)[C@@H](C)CC)C(=O)N[C@@H](CC(N)=O)C(=O)N[C@@H](Cc1c[nH]c2ccccc12)C(=O)N[C@@H](CC(C)C)C(=O)N[C@H](C(=O)N[C@@H](CCC(N)=O)C(=O)N[C@H](C(=O)N[C@@H](CCCCN)C(=O)N[C@H](C(=O)N[C@H](C(=O)N[C@@H](CC(=O)O)C(=O)O)[C@@H](C)O)[C@@H](C)CC)[C@@H](C)O)[C@@H](C)CC [GLP2, reference compound] | activated individual cell lines as expected | – | – | – | – | – | – | – | – | – | – | – | – | – | – | – | – | – |
| CCc1cc(OCCCCn2cc(COCCOCCOCCOCCOCCOCCOCCOCCN)nn2)ccc1-c1ccc(C[C@H](NC(=O)[C@H](CC(=O)O)NC(=O)[C@H](CO)NC(=O)[C@@H](NC(=O)C(C)(Cc2ccccc2F)NC(=O)[C@@H](NC(=O)CNC(=O)[C@H](Cc2nn[nH]n2)NC(=O)C(C)(C)C(=O)NCCc2cnc[nH]2)[C@@H](C)O)[C@@H](C)O)C(=O)N[C@@H](CCCc2cc(C)cc(C)c2)C(N)=O)cc1 (stereo partly drawn) [LP11, NH2-PEG8-triazole-P8] | – | > 200 | 1.3 | >49.4 | no obvious cytotoxicity | negative for mutagenicity | Negative for | ≤ 2.0 | <8.6 | >2.42 | Completely inactive | Completely inactive | 74.5 | 33.1 | 113.3 | 89.2 | Completely inactive | >140 |

Reference: US20250161476A1 (REGENERON PHARMACEUTICALS, INC., priority 2020, published 2025)
